From article PMC4738175 (Cancer letters, 2015)

Columns and labels:
[1] = system: phosphorylation of MEK1/2 and ERK1/2; assay: Western blot of phosphorylated MEK1/2 and ERK1/2 in PK03 cells; assay type: cell-based, mouse; conditions: PK03 cells, 3, 10 or 30μM, 24 hours
[2] = cited from earlier work
[3] = in vivo; conditions: male, Swiss Webster, mouse, po, 1 mg/kg
[4] = system: PK03 cells; assay: Colony formation assay in PK03 cells; conditions: Mus musculus, read-out: IC50 dose, PK03 cell growth
[5] = system: PK03 tumors; assay: Histopathology and immunohistochemistry; conditions: 10mg/kg; for number of MPO-labeled neutrophils/macrophages per high power field: 40X objective lens, P< 0.05 vs control; for tumor morphology vs PK03 control tumors: histopathology
[6] = system: sEH; assay: Plasma oxylipin metabolic profile by LC-MS/MS in mice implanted with PK03 cells; assay type: in vivo
[7] = system: phosphorylation of c-RAF; assay: Western blot of phosphorylated c-RAF in PK03 cells; assay type: cell-based, mouse; conditions: PK03 cells, 3, 10 or 30μM, 24 hours
[8] = target: T1, sEH (Homo sapiens, UniProt P34913); assay: sEH enzyme assay; assay type: biochemical; conditions: read-out: sEH IC50
T1 sequence (P34913 1-555): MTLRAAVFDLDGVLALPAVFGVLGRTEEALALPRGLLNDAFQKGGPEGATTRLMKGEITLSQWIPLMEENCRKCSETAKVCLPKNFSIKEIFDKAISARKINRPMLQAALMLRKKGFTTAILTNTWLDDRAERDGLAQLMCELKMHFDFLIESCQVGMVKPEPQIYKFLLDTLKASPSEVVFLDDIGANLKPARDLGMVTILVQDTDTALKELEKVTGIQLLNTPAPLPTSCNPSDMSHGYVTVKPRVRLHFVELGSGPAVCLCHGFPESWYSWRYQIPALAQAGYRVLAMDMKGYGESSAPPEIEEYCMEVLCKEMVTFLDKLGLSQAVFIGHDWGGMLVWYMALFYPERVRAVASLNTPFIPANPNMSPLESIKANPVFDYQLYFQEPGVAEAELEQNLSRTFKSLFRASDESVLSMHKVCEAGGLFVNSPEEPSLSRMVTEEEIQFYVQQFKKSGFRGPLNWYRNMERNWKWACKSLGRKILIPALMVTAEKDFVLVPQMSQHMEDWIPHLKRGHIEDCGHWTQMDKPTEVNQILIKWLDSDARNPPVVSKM

[9] = Toxicity in mice; assay type: in vivo; conditions: 35 days treatment
[10] = system: PK03 cells; conditions: 10mg/kg body weight in drinking water, end of 5 weeks, vs PK03 control
[11] = system: phosphorylated ERK1/2; assay: Immunohistochemical staining of phosphorylated ERK1/2 in PK03 tumors; conditions: 10mg/kg, n = 3 mice/group, vs PK03 control

CNC(=O)c1cc(Oc2ccc(NC(=O)Nc3ccc(Cl)c(C(F)(F)F)c3)cc2)ccn1 [Sorafenib, reference compound]
inhibition of phosphorylation of MEK1/2 and ERK1/2 [1]: significantly inhibited | clinically achievable plasma concentration [2]: 10 µM | Tmax [3]: 2 h | half-life [3]: 1.5 ± 0.5 h | IC50 [4]: 9 µM | number of MPO-labeled neutrophils/macrophages per high power field [5]: 15.1 ± 9.8 | tumor morphology vs PK03 control tumors [5]: more glandular differentiation with lumen formation and less inflammatory cells reaction | effect on cyclooxygenase and lipoxygenase mediated metabolites (prostaglandins, thromboxane, leukotrienes, HETE) [6]: no significant difference | inhibition of phosphorylation of c-RAF [7]: but not by sorafenib or t-AUCB

CNC(=O)c1cc(O[C@H]2CC[C@@H](NC(=O)Nc3ccc(Cl)c(C(F)(F)F)c3)CC2)ccn1 [c-CUPM]
IC50 [8]: 0.0005 µM

CNC(=O)c1cc(O[C@H]2CC[C@H](NC(=O)Nc3ccc(Cl)c(C(F)(F)F)c3)CC2)ccn1 [t-CUPM, trans-4-{4-[3-(4-chloro-3-trifluoromethyl-phenyl)-ureido]-cyclohexyloxy}-pyridine-2-carboxylic acid methylamide]
inhibition of phosphorylation of MEK1/2 and ERK1/2 [1]: significantly inhibited | toxic effect grossly and histopathologically [9]: did not produce any toxic effect | tumor size [10]: 275.9 ± 68.9 mm^3 | tumor weight [10]: 0.25 ± 0.06 g | half-life [3]: 2.2 ± 1.6 h | IC50 [4]: 8.1 µM | number of MPO-labeled neutrophils/macrophages per high power field [5]: 12.4 ± 6.1 | tumor morphology vs PK03 control tumors [5]: more glandular differentiation with lumen formation and less inflammatory cells reaction | effect on cyclooxygenase and lipoxygenase mediated metabolites (prostaglandins, thromboxane, leukotrienes, HETE) [6]: no significant difference | staining intensity of phosphorylated ERK1/2 [11]: 60 ± 19.2 | inhibition of phosphorylation of c-RAF [7]: significantly inhibited
